Results taken from patent US6372446B1, “Method of selectively determining a fungal biomass” (Mycometer ApS, priority 1997, dated 2002).

Columns and labels:
[1] = test system: Eurotium sp. (AAS 36); experiment: Screening of fungi for enzyme activity with 4-methylumbelliferone-labelled substrates; format: cell-based; conditions: substrate 10 μM, 25° C., pH 5; for Enzyme activity: amount of released 4-methylumbelliferone: mineral medium; for Enzyme activity: amount of released 4-methylumbelliferone during 5 hours of incubation: vegetable juice medium
[2] = test system: Aspergillus versicolor (IBT 13738); experiment: as above; format: cell-based; conditions: substrate 10 μM, 25° C., pH 5; for Enzyme activity: amount of released 4-methylumbelliferone: mineral medium; for Enzyme activity: amount of released 4-methylumbelliferone during 5 hours of incubation: vegetable juice medium
[3] = test system: Penicillium commune (IBT 13713); experiment: as above; format: cell-based; conditions: substrate 10 μM, 25° C., pH 5; for Enzyme activity: amount of released 4-methylumbelliferone: mineral medium; for Enzyme activity: amount of released 4-methylumbelliferone during 5 hours of incubation: vegetable juice medium
[4] = test system: Aureobasidium pullulans (QM 3092); experiment: as above; format: cell-based; conditions: substrate 10 μM, 25° C., pH 5; for Enzyme activity: amount of released 4-methylumbelliferone during 5 hours of incubation: Aureobasidium pulluians (QM 3092), vegetable juice medium; for Enzyme activity: amount of released 4-methylumbelliferone: Aureobasidium pullulans (QM 3092), mineral medium
[5] = test system: Aspergillus oryzae (AGM 11); experiment: as above; format: cell-based; conditions: substrate 10 μM, 25° C., pH 5; for Enzyme activity: amount of released 4-methylumbelliferone: mineral medium; for Enzyme activity: amount of released 4-methylumbelliferone during 5 hours of incubation: vegetable juice medium
[6] = test system: all fungi tested; experiment: Screening of a diverse selection of fungi for ability to degrade 11 substrates (summary); format: cell-based; conditions: mineral medium and vegetable juice medium
Method: A number of fungi representing different taxonomic groupings were screened for enzyme activity. The fungi were grown for in 24 well plates (Nunclon Multidish, Life Technologies A/S) (well volume 3.4 ml) containing 1.5 ml of agarized growth medium. After a growth period of 10 days at 25° C., 1.5 ml citrate-phosphat buffer (pH 5) were added to the wells and one of 11 enzyme substrates were then added to each well and incubated for 5 hours at 25° C. after which the fluorescence of each well was measured. For each fungus two wells were incubated with each enzyme substrate. All substrates were used in a final concentration of 10 μM. The substrate only and the organism plus the agarized medium were included as controls. […] The fungi subjected to the assaying procedure were all obtained from the culture collection of the Department of General Microbiology at the University of Copenhagen, Denmark.

[7] = test system: human hexosaminidase; experiment: Cleavage of substrate in human blood and plasma samples; format: biochemical
Description: The diagnostic method detects fungal β-N-acetylhexosaminidase activity in human plasma. […] However, it was discovered that this human hexosaminidase activity can be eliminated by a pre-treatment step comprising precipitation e.g. by adding ammonium sulphate (70% saturation) to the human plasma samples. […] In the samples containing C. albicans culture fluid more than 75% of the fungal β-N-acetylhexosaminidase activity remained after precipitation step to eliminate interfering human enzyme activity. […] After incubation, 300 μl Tris buffer (2.5 M) was added to the mixture to increase the pH to above 9 and the fluorescence measured. This procedure was tested on plasma from different control subjects with no known previous fungal infections. Culture fluids from cultivation of C. albicans or of A. fumigatus containing β-N-acetylhexosaminidase activity were added to the plasma samples. […] After the incubation, Tris buffer was added and the fluorescence formed was measured against the control samples. The presence of fungal β-N-acetylhexosaminidase activity was detected and the fluorescence was proportional to the amount of fungal β-N-acetylhexosaminidase added.

[8] = test system: Paecilomyces farinosus (AGM 5); experiment: Screening of fungi for enzyme activity with 4-methylumbelliferone-labelled substrates; format: cell-based; conditions: substrate 10 μM, 25° C., pH 5; for Enzyme activity: amount of released 4-methylumbelliferone: mineral medium; for Enzyme activity: amount of released 4-methylumbelliferone during 5 hours of incubation: vegetable juice medium
[9] = test system: Ascobolus crenulatus (AAS 1); experiment: as above; format: cell-based; conditions: substrate 10 μM, 25° C., pH 5; for Enzyme activity: amount of released 4-methylumbelliferone: mineral medium; for Enzyme activity: amount of released 4-methylumbelliferone during 5 hours of incubation: vegetable juice medium
[10] = test system: Trametes versicolor (AGM 24); experiment: as above; format: cell-based; conditions: substrate 10 μM, 25° C., pH 5; for Enzyme activity: amount of released 4-methylumbelliferone: mineral medium; for Enzyme activity: amount of released 4-methylumbelliferone during 5 hours of incubation: vegetable juice medium
[11] = test system: Cladosporium herbarum (AGM 8); experiment: as above; format: cell-based; conditions: substrate 10 μM, 25° C., pH 5; for Enzyme activity: amount of released 4-methylumbelliferone: mineral medium; for Enzyme activity: amount of released 4-methylumbelliferone during 5 hours of incubation: vegetable juice medium
[12] = test system: Sodaria fimicola (AAS 17); experiment: as above; format: cell-based; conditions: substrate 10 μM, 25° C., pH 5; for Enzyme activity: amount of released 4-methylumbelliferone: mineral medium; for Enzyme activity: amount of released 4-methylumbelliferone during 5 hours of incubation: vegetable juice medium
[13] = test system: Penicillium solitum (IBT 13771); experiment: as above; format: cell-based; conditions: substrate 10 μM, 25° C., pH 5; for Enzyme activity: amount of released 4-methylumbelliferone: mineral medium; for Enzyme activity: amount of released 4-methylumbelliferone during 5 hours of incubation: vegetable juice medium
[14] = test system: Rhizomucor pusillus (AAS 300); experiment: as above; format: cell-based; conditions: substrate 10 μM, 25° C., pH 5; for Enzyme activity: amount of released 4-methylumbelliferone: mineral medium; for Enzyme activity: amount of released 4-methylumbelliferone during 5 hours of incubation: vegetable juice medium
[15] = test system: Schizophyllum commune (AGM 25); experiment: as above; format: cell-based; conditions: substrate 10 μM, 25° C., pH 5; for Enzyme activity: amount of released 4-methylumbelliferone: mineral medium; for Enzyme activity: amount of released 4-methylumbelliferone during 5 hours of incubation: vegetable juice medium
[16] = test system: Mucor racemosus (AAS 310); experiment: as above; format: cell-based; conditions: substrate 10 μM, 25° C., pH 5; for Enzyme activity: amount of released 4-methylumbelliferone: mineral medium; for Enzyme activity: amount of released 4-methylumbelliferone during 5 hours of incubation: vegetable juice medium

Compound	Enzyme activity: amount of released 4-methylumbelliferone [1]	Enzyme activity: amount of released 4-methylumbelliferone during 5 hours of incubation [1]	Enzyme activity: amount of released 4-methylumbelliferone [2]	Enzyme activity: amount of released 4-methylumbelliferone during 5 hours of incubation [2]	Enzyme activity: amount of released 4-methylumbelliferone [3]	Enzyme activity: amount of released 4-methylumbelliferone during 5 hours of incubation [3]	Enzyme activity: amount of released 4-methylumbelliferone during 5 hours of incubation [4]	Enzyme activity: amount of released 4-methylumbelliferone [4]	Enzyme activity: amount of released 4-methylumbelliferone [5]	Enzyme activity: amount of released 4-methylumbelliferone during 5 hours of incubation [5]	ability to degrade the substrate [6]	Enzyme activity: amount of released 4-methylumbelliferone [8]	Enzyme activity: amount of released 4-methylumbelliferone during 5 hours of incubation [8]	Enzyme activity: amount of released 4-methylumbelliferone [9]	Enzyme activity: amount of released 4-methylumbelliferone during 5 hours of incubation [9]	Enzyme activity: amount of released 4-methylumbelliferone [10]	Enzyme activity: amount of released 4-methylumbelliferone during 5 hours of incubation [10]	Enzyme activity: amount of released 4-methylumbelliferone [11]	Enzyme activity: amount of released 4-methylumbelliferone during 5 hours of incubation [11]	Enzyme activity: amount of released 4-methylumbelliferone [12]	further results
CC(=O)N[C@H]1[C@H](Oc2ccc3c(C)cc(=O)oc3c2)O[C@H](CO)[C@@H](O)[C@@H]1O [substrate 3, 4-methylumbelliferyl N-acetyl-β-D-blucosaminide]	*** (2 ≦ ***)	*** (2 ≦ ***)	** (1 ≦ ** 2)	*** (2 ≦ ***)	** (1 ≦ ** 2)	*** (2 ≦ ***)	*** (2 ≦ ***)	*** (2 ≦ ***)	*** (2 ≦ ***)	*** (2 ≦ ***)	could be demonstrated in all fungi tested	*** (2 ≦ ***)	*** (2 ≦ ***)	*** (2 ≦ ***)	*** (2 ≦ ***)	** (1 ≦ ** 2)	*** (2 ≦ ***)	** (1 ≦ ** 2)	** (1 ≦ ** 2)	** (1 ≦ ** 2)	cleavage by human hexosaminidase [7]: also cleaved by human hexosaminidase; Enzyme activity: amount of released 4-methylumbelliferone during 5 hours of incubation [12]: *** (2 ≦ ***); Enzyme activity: amount of released 4-methylumbelliferone [13]: *** (2 ≦ ***); Enzyme activity: amount of released 4-methylumbelliferone during 5 hours of incubation [13]: *** (2 ≦ ***); Enzyme activity: amount of released 4-methylumbelliferone [14]: * (0.4 ≦ * < 1); Enzyme activity: amount of released 4-methylumbelliferone during 5 hours of incubation [14]: *** (2 ≦ ***); Enzyme activity: amount of released 4-methylumbelliferone [15]: *** (2 ≦ ***); Enzyme activity: amount of released 4-methylumbelliferone during 5 hours of incubation [15]: *** (2 ≦ ***); Enzyme activity: amount of released 4-methylumbelliferone [16]: *** (2 ≦ ***); Enzyme activity: amount of released 4-methylumbelliferone during 5 hours of incubation [16]: *** (2 ≦ ***)
CC(=O)N[C@H]1[C@H](Oc2ccc3c(C)cc(=O)oc3c2)O[C@H](CO)[C@@H](O[C@@H]2O[C@H](CO)[C@@H](O[C@@H]3O[C@H](CO)[C@@H](O)[C@H](O)[C@H]3NC(C)=O)[C@H](O)[C@H]2NC(C)=O)[C@@H]1O [substrate 4, 4-methylumbelliferyl β-D-N,N′,N″triacetylchitotrioside]	** (1 ≦ ** 2)	** (1 ≦ ** 2)	* (0.4 ≦ * < 1)	*** (2 ≦ ***)	0 µmol	*** (2 ≦ ***)	*** (2 ≦ ***)	*** (2 ≦ ***)	** (1 ≦ ** 2)	*** (2 ≦ ***)	could be demonstrated in all fungi tested	** (1 ≦ ** 2)	*** (2 ≦ ***)	** (1 ≦ ** 2)	** (1 ≦ ** 2)	** (1 ≦ ** 2)	*** (2 ≦ ***)	* (0.4 ≦ * < 1)	* (0.4 ≦ * < 1)	** (1 ≦ ** 2)	Enzyme activity: amount of released 4-methylumbelliferone during 5 hours of incubation [12]: *** (2 ≦ ***); Enzyme activity: amount of released 4-methylumbelliferone [13]: ** (1 ≦ ** 2); Enzyme activity: amount of released 4-methylumbelliferone during 5 hours of incubation [13]: *** (2 ≦ ***); Enzyme activity: amount of released 4-methylumbelliferone [14]: *** (2 ≦ ***); Enzyme activity: amount of released 4-methylumbelliferone during 5 hours of incubation [14]: *** (2 ≦ ***); Enzyme activity: amount of released 4-methylumbelliferone [15]: ** (1 ≦ ** 2); Enzyme activity: amount of released 4-methylumbelliferone during 5 hours of incubation [15]: *** (2 ≦ ***); Enzyme activity: amount of released 4-methylumbelliferone [16]: ** (1 ≦ ** 2); Enzyme activity: amount of released 4-methylumbelliferone during 5 hours of incubation [16]: *** (2 ≦ ***)
